Measured values taken from patent US12559529B2, “NPY2 receptor agonists” (Boehringer Ingelheim International GmbH, priority 2019, dated 2026).
*1 amine or outer side, *2 acyl side, *3 side chain or, on linkers, in order; H or OH if unused. Where a SMILES comes first, the peptide text is derived from it. Side-chain parts run from the residue outwards. The star is where a group is joined. C18 diacid = O=C(O)CCCCCCCCCCCCCCCCC(=O)*; γGlu = O=C(O)[C@H](CCC(=O)[*:2])N[*:1]; Isovaleryl = CC(C)CC(=O)*; AEEA = NCCOCCOCC(=O)O

Target: T1, Human Neuropeptide Y2 Receptor (Homo sapiens, UniProt P49146)
T1 construct: purchased CHEMICON HTS066M
T1 sequence (P49146 1-381): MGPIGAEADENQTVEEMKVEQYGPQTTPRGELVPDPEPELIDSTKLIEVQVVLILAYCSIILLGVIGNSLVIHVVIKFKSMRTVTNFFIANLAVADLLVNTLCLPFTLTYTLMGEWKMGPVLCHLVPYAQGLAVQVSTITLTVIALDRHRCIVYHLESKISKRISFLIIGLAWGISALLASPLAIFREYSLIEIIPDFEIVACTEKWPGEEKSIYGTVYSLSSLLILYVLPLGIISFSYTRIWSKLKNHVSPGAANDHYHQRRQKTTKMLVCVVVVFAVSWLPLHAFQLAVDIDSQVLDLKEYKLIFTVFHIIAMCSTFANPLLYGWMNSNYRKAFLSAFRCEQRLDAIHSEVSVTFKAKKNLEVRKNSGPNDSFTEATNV
Experiment: Radioligand binding competition assay (RLB)
Settings: Table 3; human 125I-PYY (1-36) 0.02 nM, Y2 receptor membranes; read-out: Ki
How it was run: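 Competition binding on human Y2 receptor membranes, 0.5 μg protein/well, in 50 mM HEPES, 5 mM MgCl2, 1 mM CaCl2, pH 7.4, 0.2% ovalbumin; peptides diluted from 1 mM DMSO stocks.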

Row | Structure (SMILES) | Ki [nM]
1 | CC(C)CC(=O)N[C@@H](C)C(=O)N1CCC[C@H]1C(=O)N[C@@H](CCC(=O)O)C(=O)N[C@@H](CCCCNC(=O)COCCOCCNC(=O)COCCOCCNC(=O)CC[C@H](NC(=O)CCCCCCCCCCCCCCCCC(=O)O)C(=O)O)C(=O)N1CCC[C@H]1C(=O)N[C@@H](CCC(=O)O)C(=O)N[C@@H](CCC(=O)O)C(=O)N[C@@H](CC(=O)O)C(=O)N[C@@H](C)C(=O)N[C@@H](CO)C(=O)N[C@@H](CCC(=O)O)C(=O)N[C@@H](CCC(=O)O)C(=O)N[C@@H](CCC(=O)O)C(=O)N[C@@H](CC(C)C)C(=O)N[C@@H](CCC(N)=O)C(=O)N[C@@H](CCCNC(=N)N)C(=O)N[C@@H](Cc1ccc(O)cc1)C(=O)N[C@@H](Cc1ccc(O)cc1)C(=O)N[C@H](C(=O)N[C@@H](CCC(=O)O)C(=O)N[C@@H](CC(C)C)C(=O)N[C@@H](CCCNC(=N)N)C(=O)N[C@@H](Cc1c[nH]cn1)C(=O)N[C@@H](Cc1ccc(O)cc1)C(=O)N[C@@H](Cc1ccc(O)cc1)C(=O)N[C@@H](CC(N)=O)C(=O)N[C@@H](Cc1c[nH]c2ccccc12)C(=O)N[C@@H](CC(C)C)C(=O)N[C@H](C(=O)N[C@@H](CCCNC(=N)N)C(=O)N[C@@H](CCC(N)=O)C(=O)N[C@@H](CCCNC(=N)N)C(=O)N[C@@H](Cc1ccc(O)cc1)C(N)=O)[C@@H](C)O)C(C)C [Compound 77, N{alpha-4}-(3-methylbutanoyl)-N{epsilon-7}-[2-(2-{2-[2-(2-{2-[(4S)-4-carboxy-4-(17-carboxyheptadecanamido)butanamido]ethoxy}ethoxy)acetamido]ethoxy}ethoxy)acetamido]-[4A,7K,9E,14E,18Q,22V,23E,28Y,30W,31L]hPYY (4-36)] | 6.17
2 | CC(C)CC(=O)N[C@@H](C)C(=O)N1CCC[C@H]1C(=O)N[C@@H](CCC(=O)O)C(=O)N[C@@H](CCCCNC(=O)COCCOCCNC(=O)COCCOCCNC(=O)CC[C@H](NC(=O)CCCCCCCCCCCCCCCCC(=O)O)C(=O)O)C(=O)N1CCC[C@H]1C(=O)N[C@@H](CCC(=O)O)C(=O)N[C@@H](CCC(=O)O)C(=O)N[C@@H](CCC(=O)O)C(=O)N[C@@H](C)C(=O)N[C@@H](CO)C(=O)N1CCC[C@H]1C(=O)N[C@@H](CCC(=O)O)C(=O)N[C@@H](CCC(=O)O)C(=O)N[C@H](C(=O)N[C@@H](CCC(N)=O)C(=O)N[C@@H](CCCNC(=N)N)C(=O)N[C@@H](Cc1ccc(O)cc1)C(=O)N[C@@H](Cc1ccc(O)cc1)C(=O)N[C@H](C(=O)N[C@@H](CO)C(=O)N[C@@H](CC(C)C)C(=O)N[C@@H](CCCNC(=N)N)C(=O)N[C@@H](Cc1c[nH]cn1)C(=O)N[C@@H](Cc1ccc(O)cc1)C(=O)N[C@@H](Cc1ccc(O)cc1)C(=O)N[C@@H](CC(N)=O)C(=O)N[C@@H](Cc1c[nH]c2ccccc12)C(=O)N[C@@H](CC(C)C)C(=O)N[C@H](C(=O)N[C@@H](CCCNC(=N)N)C(=O)N[C@@H](CCC(N)=O)C(=O)N[C@@H](CCCNC(=N)N)C(=O)N[C@@H](Cc1ccc(O)cc1)C(N)=O)[C@@H](C)O)C(C)C)[C@@H](C)O [Compound 80, N{alpha-4}-(3-methylbutanoyl)-N{epsilon-7}-[2-(2-{2-[2-(2-{2-[(4S)-4-carboxy-4-(17-carboxyheptadecanamido)butanamido]ethoxy}ethoxy)acetamido]ethoxy}ethoxy)acetamido]-[4A,7K,9E,11E,17T,18Q,22V,28Y,30W,31L]hPYY (4-36)] | 6.96
3 | CC(C)CC(=O)N[C@@H](C)C(=O)N1CCC[C@H]1C(=O)N[C@@H](CCC(=O)O)C(=O)N[C@@H](CCCCNC(=O)COCCOCCNC(=O)COCCOCCNC(=O)CC[C@H](NC(=O)CCCCCCCCCCCCCCCCC(=O)O)C(=O)O)C(=O)N1CCC[C@H]1C(=O)N[C@@H](CCC(=O)O)C(=O)N[C@@H](CCC(=O)O)C(=O)N[C@@H](CC(=O)O)C(=O)N[C@@H](C)C(=O)N[C@@H](CO)C(=O)N1CCC[C@H]1C(=O)N[C@@H](CCC(=O)O)C(=O)N[C@@H](CCC(=O)O)C(=O)N[C@@H](CC(C)C)C(=O)N[C@@H](CCC(N)=O)C(=O)N[C@@H](CCCNC(=N)N)C(=O)N[C@@H](Cc1ccc(O)cc1)C(=O)N[C@@H](C)C(=O)N[C@H](C(=O)N[C@@H](CO)C(=O)N[C@@H](CC(C)C)C(=O)N[C@@H](CCCNC(=N)N)C(=O)N[C@@H](Cc1c[nH]cn1)C(=O)N[C@@H](Cc1ccc(O)cc1)C(=O)N[C@@H](Cc1ccc(O)cc1)C(=O)N[C@@H](CC(N)=O)C(=O)N[C@@H](Cc1c[nH]c2ccccc12)C(=O)N[C@@H](CC(C)C)C(=O)N[C@H](C(=O)N[C@@H](CCCNC(=N)N)C(=O)N[C@@H](CCC(N)=O)C(=O)N[C@@H](CCCNC(=N)N)C(=O)N[C@@H](Cc1ccc(O)cc1)C(N)=O)[C@@H](C)O)C(C)C [Compound 85, N{alpha-4}-(3-methylbutanoyl)-N{epsilon-7}-[2-(2-{2-[2-(2-{2-[(4S)-4-carboxy-4-(17-carboxyheptadecanamido)butanamido]ethoxy}ethoxy)acetamido]ethoxy}ethoxy)acetamido]-[4A,7K,9E,18Q,21A,22V,28Y,30W,31L]hPYY (4-36)] | 1.56
4 | CC(C)CC(=O)N[C@@H](C)C(=O)N1CCC[C@H]1C(=O)N[C@@H](CCC(=O)O)C(=O)N[C@@H](CCCCNC(=O)COCCOCCNC(=O)COCCOCCNC(=O)CC[C@H](NC(=O)CCCCCCCCCCCCCCCCC(=O)O)C(=O)O)C(=O)N1CCC[C@H]1C(=O)N[C@@H](CCC(=O)O)C(=O)N[C@@H](C)C(=O)N[C@@H](CC(=O)O)C(=O)N[C@@H](C)C(=O)N[C@@H](CO)C(=O)N1CCC[C@H]1C(=O)N[C@@H](CCC(=O)O)C(=O)N[C@@H](CCC(=O)O)C(=O)N[C@@H](CC(C)C)C(=O)N[C@@H](CCC(N)=O)C(=O)N[C@@H](CCCNC(=N)N)C(=O)N[C@@H](Cc1ccc(O)cc1)C(=O)N[C@@H](CCC(=O)O)C(=O)N[C@H](C(=O)N[C@@H](CO)C(=O)N[C@@H](CC(C)C)C(=O)N[C@@H](CCCNC(=N)N)C(=O)N[C@@H](Cc1c[nH]cn1)C(=O)N[C@@H](Cc1ccc(O)cc1)C(=O)N[C@@H](Cc1ccc(O)cc1)C(=O)N[C@@H](CC(N)=O)C(=O)N[C@@H](Cc1c[nH]c2ccccc12)C(=O)N[C@@H](CC(C)C)C(=O)N[C@H](C(=O)N[C@@H](CCCNC(=N)N)C(=O)N[C@@H](CCC(N)=O)C(=O)N[C@@H](CCCNC(=N)N)C(=O)N[C@@H](Cc1ccc(O)cc1)C(N)=O)[C@@H](C)O)C(C)C [Compound 86, N{alpha-4}-(3-methylbutanoyl)-N{epsilon-7}-[2-(2-{2-[2-(2-{2-[(4S)-4-carboxy-4-(17-carboxyheptadecanamido)butanamido]ethoxy}ethoxy)acetamido]ethoxy}ethoxy)acetamido]-[4A,7K,9E,10A,18Q,21E,22V,28Y,30W,31L]hPYY (4-36)] (Isovaleryl-APEK([AEEA-AEEA-γGlu-C18 diacid])PEADASPEELQRYEVSLRHYYNWLTRQRY-NH2) | 1.19
5 | CC(C)CC(=O)N[C@@H](C)C(=O)N1CCC[C@H]1C(=O)N[C@@H](CCC(=O)O)C(=O)N[C@@H](CCCCNC(=O)COCCOCCNC(=O)COCCOCCNC(=O)CC[C@H](NC(=O)CCCCCCCCCCCCCCCCC(=O)O)C(=O)O)C(=O)N1CCC[C@H]1C(=O)N[C@@H](CCC(=O)O)C(=O)N[C@@H](CCC(=O)O)C(=O)N[C@@H](CC(=O)O)C(=O)N[C@@H](CO)C(=O)N[C@@H](CO)C(=O)N1CCC[C@H]1C(=O)N[C@@H](C)C(=O)N[C@@H](CCC(=O)O)C(=O)N[C@@H](CC(C)C)C(=O)N[C@@H](CCC(N)=O)C(=O)N[C@@H](CCCNC(=N)N)C(=O)N[C@@H](Cc1ccc(O)cc1)C(=O)N[C@@H](Cc1ccc(O)cc1)C(=O)N[C@H](C(=O)N[C@@H](CO)C(=O)N[C@@H](CC(C)C)C(=O)N[C@@H](CCCNC(=N)N)C(=O)N[C@@H](Cc1c[nH]cn1)C(=O)N[C@@H](Cc1ccc(O)cc1)C(=O)N[C@@H](Cc1ccc(O)cc1)C(=O)N[C@@H](CC(N)=O)C(=O)N[C@@H](Cc1c[nH]c2ccccc12)C(=O)N[C@@H](CC(C)C)C(=O)N[C@H](C(=O)N[C@@H](CCCNC(=N)N)C(=O)N[C@@H](CCC(N)=O)C(=O)N[C@@H](CCCNC(=N)N)C(=O)N[C@@H](Cc1ccc(O)cc1)C(N)=O)[C@@H](C)O)C(C)C [Compound 87, N{alpha-4}-(3-methylbutanoyl)-N{epsilon-7}-[2-(2-{2-[2-(2-{2-[(4S)-4-carboxy-4-(17-carboxyheptadecanamido)butanamido]ethoxy}ethoxy)acetamido]ethoxy}ethoxy)acetamido]-[4A,7K,9E,12S,15A,18Q,22V,28Y,30W,31L]hPYY (4-36)] (Isovaleryl-APEK([AEEA-AEEA-γGlu-C18 diacid])PEEDSSPAELQRYYVSLRHYYNWLTRQRY-NH2) | 1.97
